The text below walks through data of PubChem BioAssay (NCI).

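Assay format: 96-well plates, 48-hour exposure. Here, GI50 denotes the concentration required for 50% inhibition of growth. Definition used: TGI = concentration required for complete inhibition of growth.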 A value given as a limit tells only on which side of the number the result lay.

Assay in all cases: growth of human tumour cells (NCI), 48 h
Experiment [1] relates to CCRF-CEM leukemia.
Experiment [2] relates to HT29 colon.
Experiment [3] relates to MALME-3M melanoma.
The subject of experiment [4] is MDA-MB-231 breast.
The test system of experiment [5] is NCI-H522 lung.
The subject of experiment [6] is SW-620 colon.
For experiment [7], the system named is TK-10 renal.
Experiment [8] concerns U251 CNS.
For experiment [9], the system named is UO-31 renal.
The subject of experiment [10] is PC-3 prostate.

In the case of `Nn1c(Cc2ccc(Cl)cc2)n[nH]c1=O`, the TGI in [1], in experiment [2], in experiment [3], in experiment [4], in [5] and in experiment [6] was more than 100 µM throughout. Moreover, the TGI in [7], in experiment [8] and in experiment [9] was more than 100 µM each time.
In the case of `O=C1C=Cc2c(Cl)sc(Cl)c21`, the TGI in [1] was 1.36 µM; in [2] it was 3.34 µM; in [4], more than 100 µM; in [10], 4.83 µM; in [7], 4.39 µM; in [8], more than 100 µM.
`CC1CN=C(Nc2cccc(C(F)(F)F)c2)S1` (stereo not given): the TGI in experiment [1], in experiment [2], in [3], in experiment [4], in experiment [5] and in experiment [7] was more than 100 µM in each case. Also, the TGI in experiment [8] is more than 100 µM; in experiment [9], 78.6 µM.
`COC(=O)C1=C(C)N2CCCOC2(C)C(C(=O)OC)C1c1cccc(Cl)c1` (stereo not given): the TGI in [1] was more than 100 µM; in experiment [2] it was 56.2 µM; in experiment [6] it was more than 100 µM; in [7] it was more than 100 µM; in experiment [9], 71.2 µM.
Take `COc1cc2c(cc1OC)C1CN3C(=O)CCC3C(O)C1c1cc(OC)c(OC)cc1-2` (stereo not given): the TGI in experiment [1], in experiment [2], in experiment [3], in experiment [4], in [5] and in experiment [6] was more than 100 µM throughout. Moreover, the TGI in experiment [7], in [8] and in experiment [9] was more than 100 µM in each case.
For `C[C@]12CC[C@H]3[C@@H](CCC4=CC(=O)C=C[C@@]43O)[C@@H]1CCC2=O`, the TGI in experiment [1], in [4], in experiment [10], in experiment [6], in [8] and in experiment [9] was more than 100 µM each time.
For the molecule `CC(C)(C)C#C[P+](c1ccccc1)(c1ccccc1)c1ccccc1`, the TGI in experiment [1] amounted to 0.699 µM; in experiment [2], 1.11 µM; in experiment [3], 1.68 µM; in experiment [5], 0.448 µM; in [6] it was 0.843 µM; in [7] it was 3.48 µM. In addition, the TGI in experiment [8] worked out at 1.32 µM; in experiment [9], 7.28 µM.
In the case of `CC1=NN(c2cccc(Cl)c2)C2(C1)C(Cl)C(=O)N2c1nc2ccccc2s1` (stereo not given), the TGI in experiment [2] is more than 100 µM; in experiment [3] it was more than 100 µM; in experiment [4], 41.2 µM; in experiment [5], 56.6 µM; in experiment [10], 63.8 µM; in [6] it was more than 100 µM. Further, the TGI in experiment [7] is more than 100 µM; in experiment [8], 72.5 µM; in experiment [9] it was 51.1 µM.
In the case of `COc1c(-c2cc(C)c(Cl)c(=O)[nH]2)c(O)c(OC)c2occc12`, the TGI in experiment [2], in [3], in experiment [4], in experiment [5], in [10] and in experiment [6] was more than 100 µM in each case. Also, the TGI in [7], in experiment [8] and in experiment [9] was more than 100 µM in each case.
For `O=C1COC(c2ccccc2O)=NN1CCCN1CCCC1`, the TGI in experiment [2], in experiment [3], in [4], in experiment [5], in [10] and in [6] was more than 100 µM throughout. The TGI in experiment [7], in [8] and in experiment [9] was more than 100 µM each time.
Regarding `O=S(=O)(c1cc(Cl)ccc1Cl)N1CCN(S(=O)(=O)c2cc(Cl)ccc2Cl)CC1`, the TGI in [2], in [3], in [4], in experiment [5], in experiment [10] and in [6] was more than 100 µM in each case. Also, the TGI in [7], in experiment [8] and in experiment [9] was more than 100 µM in each case.
In the case of `CC(=O)Nc1ccc2c(C(=O)O)c(C)c(=O)[nH]c2n1`, the TGI in experiment [2], in experiment [3], in [4], in experiment [5], in experiment [10] and in experiment [6] was more than 100 µM each time. For the same molecule, the TGI in experiment [7], in experiment [8] and in experiment [9] was more than 100 µM in each case.
For `CCN1CCN(C(=O)[C@]23CC[C@@H](C)[C@H](C)[C@@H]2C2=CC[C@@H]4[C@@]5(C)C/C(=C/c6cccnc6)C(=O)C(C)(C)[C@@H]5CC[C@@]4(C)[C@]2(C)CC3)CC1`, the GI50 is 2.78 µM in experiment [1]; 1.93 µM in experiment [2]; 1.4 µM in [3]; 1.75 µM in experiment [4]; 1.49 µM in [10]; 1.9 µM in experiment [6]. For the same molecule, the GI50 in experiment [7] is 2.87 µM; in [9] it was 1.36 µM. Also, the TGI in experiment [1] turned out to be 8.97 µM; in [2] it was 5.36 µM; in experiment [3] it was 2.75 µM; in experiment [4], 3.59 µM; in [10] it was 3.85 µM; in experiment [6], 4.14 µM. Further, the TGI in [7] worked out at 9.4 µM; in [9], 2.65 µM.
Turning to `Cc1cc(O)c(C(C)C)cc1NC(=O)Nc1cccc2ccccc12`, the TGI in experiment [2] is 36.1 µM; in [3], 40.3 µM; in experiment [4] it was 31.7 µM; in experiment [5], 54.1 µM; in experiment [10], 29.2 µM; in experiment [6], more than 100 µM. The TGI in experiment [7] was determined as 32.5 µM; in experiment [8], 31 µM; in [9] it was 42.9 µM.
For the molecule `Oc1ccc2c(c1)-c1c(c3cc(O)ccc3n1CCN1CCOCC1)CC2`, the TGI came to 68.7 µM in experiment [1]; 59.8 µM in experiment [2]; 44.1 µM in [4]; 40.4 µM in experiment [5]; 54.4 µM in experiment [10]; 71.2 µM in experiment [6]. Further, the TGI was more than 100 µM in experiment [7], 49 µM in experiment [8] and 57.9 µM in [9].
